The values below come from PubChem BioAssay (NCI).

Holding throughout (test): NCI anticancer screen, dose series, 48 h
For test [1], the system named is ACHN renal.
Test [2] relates to DMS 114 small cell lung.
Test [3] deals with HCC-2998 colon.
Test [4] concerns HCT-15 colon.
For test [5], the system named is LXFL 529 NSCLC.
Test [6] deals with M14 melanoma.
Test [7] has as its system OVCAR-3 ovarian.
Test [8] concerns OVCAR-8 ovarian.
In test [9] the test system is SK-MEL-28 melanoma.
The test system of test [10] is TK-10 renal.

Structures are written as SMILES. Where “and” joins values, the source holds several entries; their conditions need not be identical. Equal values may be shown once.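 Tested at 5 concentrations; 48 h exposure; 96-well plates; endpoints linearly interpolated, else capped at highest concentration. GI50 is the concentration that inhibits growth by half. At the TGI there is no net growth.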

On to `Cc1cc(Cl)ccc1N=C1NC(=O)C(CC(=O)Nc2cccc(Cl)c2)S1` (configuration not stated), for which the TGI in test [1], in test [2], in test [3], in test [4], in test [5] and in test [6] was above 100 µM each time. Besides, the TGI in test [7], in test [8], in test [9] and in test [10] was above 100 µM each time.
As to `O=P(CN1CCOCC1)(c1ccccc1)c1ccccc1`, the TGI in test [1], in test [2], in test [4], in test [5], in test [6] and in [7] was above 100 µM each time. Also, the TGI in [8], in test [9] and in [10] was above 100 µM in each case.
As for `COC(=O)CC1(O)C(=O)OCc2c1cc1n(c2=O)Cc2c-1nc1ccccc1c2OC` (configuration not stated), the TGI in test [1] is 1.02 µM; in test [2] it was above 33.1 µM; in test [3], above 100 µM; in [4], above 100 µM; in [5], above 100 µM; in test [6], 32.2 µM. Besides, the TGI in test [7] was above 57.4 µM; in test [8], above 28.5 µM; in test [9], above 100 µM; in test [10], above 100 µM.
Take `O=C1/C(=C/c2ccc(Cl)cc2)CCC1CNc1ccc(Cl)cc1` (configuration not stated): the TGI in test [1] is 26.9 µM; in test [2], above 48.3 µM; in test [3], 21.6 µM; in test [4] it was 15.3 µM; in test [5], 10.5 µM; in test [6], 22.8 µM. For the same compound, the TGI in test [7] turned out to be 21.5 µM; in [8], 19.2 µM; in [9], 35.9 µM; in test [10] it was 21.8 µM.
With `COc1ccc(/C=C/C(=O)c2c(-c3ccccc3)nn(C)c(=O)c2N2CC2C)cc1` (configuration not stated), the TGI in [1] is above 100 µM; in test [2], 90.6 µM; in test [3], 66.6 µM; in test [4], 80.5 µM; in [5], 93.2 µM; in test [6], above 100 µM. The TGI is 67.7 µM in [7], above 100 µM in test [8], above 100 µM in test [9] and above 100 µM in [10].
In the case of `COC(=O)c1c(C(=O)OC)c(-c2ccccc2)n(-c2ccccc2)c(=O)c1-c1ccccc1`, the TGI in test [2], in test [3], in test [4], in test [5], in test [6] and in test [7] was above 100 µM in each case. The TGI in [8] and in test [10] was above 100 µM each time.
Take `CC(C)c1ccc(O)c(Cc2cc(C(C)C)cc(Cc3cc(C(C)C)ccc3O)c2O)c1`: the TGI in [1] stood at 10.8 µM; in test [2] it was 3.03 µM; in test [3], 3.2 µM; in test [4] it was 3.24 µM; in test [5] it was 2.81 µM; in [6] it was 3.23 µM. For the same compound, the TGI was 3.03 µM in test [7], 4.18 µM in [8], 3.2 µM in test [9] and 4.72 µM in [10].
Consider `CC1[C@@]2(CCC(C)(C)O2)O[C@@H]2C=C3C4CCC5Cc6nc7c(nc6C[C@@]5(C)C4C[C@H](O)[C@@]3(C)[C@]12O)CC1CCC2C3=C[C@H]4O[C@@]5(O[C@@](C)(CO)C[C@@H]5O)C(C)[C@@]4(O)[C@]3(C)[C@@H](O)CC2[C@]1(C)C7` (some centres not stated), for which the GI50 was 0.000805 µM in [2]; 0.401 µM in test [3]; 0.00907 µM in test [4]; 0.435 µM in [7]; 0.426 µM in test [8]. The TGI is 0.86 µM in [3]; 0.732 µM and 0.075 µM in test [4]; 0.0824 µM in [5]; 0.122 µM in test [6]; 1.11 µM in [7]; 1.2 µM in [8]. The TGI in [9] came to 0.221 µM; in test [10] it was 0.981 µM.
Take `O=C(/C=C/c1ccccc1)c1ccc(Cl)cc1Cl`: the TGI in test [1] came to 34.1 µM; in test [2], 33.3 µM; in test [3], 40.9 µM; in [4], 26.4 µM; in [5] it was 31.1 µM; in [6], 45.3 µM. In addition, the values for the TGI in [7], in test [8] and in test [10] were 40.2 µM, 28.4 µM and above 100 µM, respectively.
`Cc1cc(N(CCC#N)CCC#N)ccc1/C=C(\NC(=O)/C=C/c1ccccc1)C(=O)Nc1ccccc1Cl`: the TGI in test [1], in test [2], in [3], in test [4], in [5] and in [6] was above 100 µM each time. The TGI in test [7], in test [8] and in [9] was above 100 µM throughout.
In the case of `O=C1CCC(c2ccccc2)=NN1c1nc2ccccc2s1`, the TGI in [1] is above 100 µM; in test [2] it was above 100 µM; in [3], above 61 µM; in [4], 99.1 µM; in test [5] it was above 100 µM; in [6], above 100 µM. Besides, the TGI is 42.4 µM in test [7], above 100 µM in test [8], above 100 µM in [9] and above 88 µM in test [10].
With `CC1NOC(=O)C1N=Nc1cccc(Cl)c1` (configuration not stated), the TGI is above 100 µM in test [1]; 61.7 µM in [2]; above 100 µM in test [3]; 42.6 µM in test [4]; above 100 µM in [5]; above 100 µM in [6]. Also, the TGI in test [7] was 60.4 µM; in test [8], above 100 µM; in [9], above 100 µM; in test [10] it was above 100 µM.
In the case of `O=C(N/C(=C\c1ccc([N+](=O)[O-])cc1)c1nc2ccccc2s1)c1ccccc1`, the TGI in test [1] is 92.1 µM; in test [2], 68.4 µM; in test [3] it was above 100 µM; in test [4] it was above 100 µM; in [5] it was 42.9 µM; in test [6], 81.8 µM. In addition, the TGI is above 100 µM in [7], 64.2 µM in test [8], above 100 µM in test [9] and 61.9 µM in test [10].
Regarding `COC(=O)C1=NC(=S)NC(c2ccccc2)C1c1nc2ccccc2o1` (configuration not stated), the TGI in test [1], in test [2], in test [3], in test [4], in test [5] and in test [6] was above 50 µM throughout. For the same compound, the TGI in [7], in test [8] and in test [10] was above 50 µM in each case.
Turning to `FC(F)(F)c1ccccc1C1SCc2nc3ccccc3n21` (configuration not stated), the TGI in test [1], in [2], in test [3], in test [5], in test [7] and in test [8] was above 100 µM in each case. The TGI in test [9] and in test [10] was above 100 µM in each case.
For the compound `CC(=O)CCC1(c2ccccc2)OC(=O)C(C#N)=C1c1ccccc1` (configuration not stated), the TGI in test [1], in [2], in test [3], in test [4], in test [5] and in [6] was above 100 µM throughout. For the same compound, the TGI in [7], in test [8], in test [9] and in test [10] was above 100 µM in each case.
`C/C=C/C=C/c1cc2cc3c(c(O)c2c(=O)[nH]1)C1(CC3)C(O)=c2c(=O)c3c(=O)cc(OC)c(=O)c=3c(=O)c2=C1O` (configuration not stated): the TGI in test [1] was 1.7 µM and 16.5 µM; in [2] it was 4.83 µM; in [3], 1.33 µM and 11.3 µM; in test [4] it was 3.68 µM and 15.1 µM; in [5] it was 4.56 µM; in test [6], 3.24 µM and 9.06 µM. For the same compound, the TGI in test [7] is 1.37 µM and 8.57 µM; in test [8] it was 5.15 µM and 15.5 µM; in test [9] it was 4.93 µM and 20.1 µM; in test [10], 4.13 µM and 16.4 µM. For the same compound, the GI50 was 0.315 µM and 0.977 µM in test [6]; 0.2 µM and 1.7 µM in test [7]; 0.145 µM and 0.902 µM in test [8].
Turning to `O=c1cc(-c2ccccc2)oc2ccc(Cl)cc12`, the TGI in [1] is above 90.6 µM; in [2], above 100 µM; in test [3], above 100 µM; in [4] it was above 100 µM; in test [5], above 100 µM; in test [6] it was above 100 µM. Further, the TGI in [7] was above 100 µM; in test [8] it was above 100 µM; in test [9], above 78.4 µM; in test [10], 92.7 µM.
Turning to `CCOc1ccc(NC(=O)CC2SC(=Nc3ccc(C)cc3)NC2=O)cc1` (configuration not stated), the TGI in test [1], in [2], in [4], in test [5], in test [6] and in test [7] was above 100 µM in each case. For the same compound, the TGI in test [8], in test [9] and in [10] was above 100 µM each time.
With `Cc1cc(NCCCCCCCNc2cc(C)nc3cc(N)ccc23)c2ccc(N)cc2n1`, the TGI was above 100 µM in test [1]; 32 µM in test [2]; above 100 µM in test [3]; above 100 µM in test [4]; above 100 µM in test [5]; above 100 µM in test [6]. Also, the TGI in [7], in test [8], in test [9] and in test [10] was above 100 µM each time.
In the case of `Cc1c(Cl)ccc2c1NC(=O)C2(O)CC(=O)c1ccc(Cl)cc1` (configuration not stated), the TGI in [1] was above 100 µM; in [2], 37.1 µM; in test [3], above 56.2 µM; in test [4], above 60.1 µM; in test [5] it was above 53.3 µM; in test [6] it was above 100 µM. The TGI in test [7], in [8], in test [9] and in [10] was above 100 µM each time.
